Data published in PubChem BioAssay AID1996.
Values after ≈ are worked out from the molar mass of the structure shown.

Conditions: buffer; pH 7.4; 200.0 µM

| SMILES | solubility kinetic |
| --- | --- |
| Cc1ccc(C(=O)Nc2ccc3ncccc3c2)cc1 | 6.9 µg/mL (≈ 26.3 µM) |
| Clc1ccc(C2=CSC3=NCCN23)c(Cl)c1.[Br-] | > 52.7 µg/mL |
| CCN1C(=O)C(=O)N(CC(=O)Nc2cc(C)ccc2C)C1=O | > 45.5 µg/mL |
| CN1CCCN(S(=O)(=O)c2ccc3ccccc3c2)CC1 | > 45.7 µg/mL |
| O=C(c1ccco1)N1CCN(C2c3ccccc3-c3ccccc32)CC1 | 1 µg/mL (≈ 2.9 µM) |
| COC(=O)c1ccc(COC(=O)CNC(=O)CNC(=O)c2ccc(OC)cc2)cc1 | 16.1 µg/mL (≈ 38.9 µM) |
| Nc1nc2nc(-c3ccccc3)cc(C(F)(F)F)c2s1 | 4.1 µg/mL (≈ 13.9 µM) |
| O=C(CSc1ncccn1)NCC1CCCO1 (stereo unspecified) | > 38 µg/mL |
| COc1ccccc1NC(=S)NC12CN3CN(CN(C3)C1)C2 | 43.3 µg/mL (≈ 136 µM) |
| COc1nc(OCC#N)nc(N2CCCCC2)n1 | 31.6 µg/mL (≈ 127 µM) |
| Cc1cc(N/C=C(\C#N)S(=O)(=O)c2ccccc2Cl)nc(C)n1 | 39.5 µg/mL (≈ 113 µM) |
| CN(C(=O)COC(=O)c1ccc(Cl)nc1)C1CCS(=O)(=O)C1 (stereo unspecified) | > 52 µg/mL |
| Cc1nc(Nc2ccccc2O)c2oc3ccccc3c2n1 | < 0.2 µg/mL |
| O=C(Nc1ccc(F)cc1)N1CCCN(c2nccc(C(F)(F)F)n2)CC1 | 57 µg/mL (≈ 149 µM) |
| COc1ccc2[nH]c(C)c(-c3csc(N)n3)c2c1 | 31.3 µg/mL (≈ 121 µM) |
| CCOC(=O)CCSc1n[nH]c(=S)s1 | > 37.6 µg/mL |
| CC1CN(C(=O)c2ccc(-c3ccccc3Cl)o2)CC(C)O1 (stereo unspecified) | 34.8 µg/mL (≈ 109 µM) |
| Cc1ccc(NC(=O)CNC(=O)C2CCCCC2)nc1 | > 41.3 µg/mL |
| CC(C)(O)C#Cc1ccc(C(=O)NC2CCCCC2)s1 | > 43.7 µg/mL |
| Cc1ccc2cccc(NS(=O)(=O)c3ccccc3)c2n1 | < 0.3 µg/mL |
| Cc1ccccc1-c1nc2sc(C)c(C)c2c(=O)o1 | < 0.6 µg/mL |
| O=C(O)Cn1cnc2c(oc3ccccc32)c1=O | > 36.6 µg/mL |
| CNCCCN1c2ccccc2CCc2ccccc21.Cl | > 45.4 µg/mL |
| O=C(Cn1cc(C(F)(F)F)ccc1=O)N1CCc2ccccc21 | 25.2 µg/mL (≈ 78.2 µM) |
| Nc1nc(-c2cccs2)c(-c2cccs2)s1 | 5.8 µg/mL (≈ 21.9 µM) |
| CSc1nc(N(C)C)nc(N(C)C#N)n1 | > 33.6 µg/mL |
| CC(=O)c1ccc(OC(C)c2nc3ccccc3s2)cc1 (stereo unspecified) | 13.1 µg/mL (≈ 44.1 µM) |

| SMILES | solubility kinetic |
| --- | --- |
| COc1ccc(Cl)cc1NC(=S)NCCN1CCOCC1 | > 49.5 µg/mL |
| Cc1cc(F)ccc1NC(=O)C1CCCO1 (stereo unspecified) | 33.3 µg/mL (≈ 149 µM) |
| Cc1csc(NC(=O)C2=COCCO2)n1 | > 33.9 µg/mL |
| Cc1cc(C)c(C#N)c(N2CCN(c3ccccc3F)CC2)n1 | 3.8 µg/mL (≈ 12.2 µM) |
| Cc1nc2ccccc2c2c(N)c3ccccc3n12 | 16.4 µg/mL (≈ 66.3 µM) |
| COc1ccccc1OCC(=O)Nc1ncc(C)s1 | 41.2 µg/mL (≈ 148 µM) |
| CSc1ccccc1NC(=O)c1cc(-c2ccco2)on1 | 1.1 µg/mL (≈ 3.66 µM) |
| Fc1ccccc1CN1CCC(Cc2ccccc2)CC1 | 25.9 µg/mL (≈ 91.4 µM) |
| Cc1ccc(S(=O)(=O)NCCCN2CCCC2)cc1 | > 42.4 µg/mL |
| Cc1ccc(C)c(NC(=O)CN(C)C(=O)c2cccc(Oc3ccccc3)c2)c1 | 31.1 µg/mL (≈ 80.1 µM) |
| COc1cccc(Cn2c(=O)c3[nH]cnc3n(-c3ccccc3C)c2=O)c1 | > 54.4 µg/mL |
| CC(=O)NC(c1ccc(C)cc1)c1cc(Cl)c2cccnc2c1O (stereo unspecified) | < 0.4 µg/mL |
| N#Cc1cn(Cc2ccccc2)c(=O)[nH]c1=O | > 34.1 µg/mL |
| COc1ccc(C(=O)Nc2ccccc2NC(=O)c2ccc(OC)cc2)cc1 | < 0.4 µg/mL |
| C=CCn1c(CCNC(=O)c2ccco2)nc2ccccc21 | > 44.3 µg/mL |
| O=C(Nc1ccc(S(=O)(=O)NC2=NCCCCC2)cc1)c1cccc(S(=O)(=O)N2CCOCC2)c1 | 51.5 µg/mL (≈ 98.9 µM) |
| O=C1NC(=S)N/C1=C/c1cccc2ccccc12 | 1.7 µg/mL (≈ 6.68 µM) |
| CC(C)n1c(N)c(C#N)c2ccc([N+](=O)[O-])cc2c1=O | 1.6 µg/mL (≈ 5.88 µM) |
| Cc1sc2ncnc(SCC(=O)Nc3ccc(S(=O)(=O)N4CCOCC4)cc3)c2c1C | 5.4 µg/mL (≈ 11.3 µM) |
| COC(=O)c1cc(CSc2nc3ccccc3c(=O)n2C)oc1C | 4.4 µg/mL (≈ 12.8 µM) |
| O=C(Oc1ccc(F)cc1)N1CCOCC1 | > 33.8 µg/mL |
| OCC(CO)(CO)NC(=S)Nc1cc(Cl)cc(Cl)c1 | 46.7 µg/mL (≈ 144 µM) |
| COC(=O)c1sccc1NS(=O)(=O)c1ccccc1 | 40.5 µg/mL (≈ 136 µM) |
| CC(=O)Nc1ccc(NC(=O)C(C)OC(=O)[C@@H]2CCCN2C(=O)c2cccs2)cc1 (stereo partly specified) | > 64.4 µg/mL |
| O=C(NC(=S)NCc1ccccc1)c1cccs1 | 1.4 µg/mL (≈ 5.07 µM) |
| CC1C(=O)Nc2ccccc2N1C(=O)c1ccc(O)cc1 (stereo unspecified) | > 42.3 µg/mL |
| CCn1c(=O)c2c(nc3n2CCCN3Cc2ccccc2)n(C)c1=O | 13.7 µg/mL (≈ 40.4 µM) |

| SMILES | solubility kinetic |
| --- | --- |
| COc1ccc2nccnc2c1[N+](=O)[O-] | > 30.8 µg/mL |
| O=C(NCc1cccnc1)Nc1ccccc1Cl | > 39.3 µg/mL |
| CC1CN(C(=S)NC2CCCC2)CC(C)O1 (stereo unspecified) | > 36.4 µg/mL |
| Cc1cc(Br)ccc1OCC(=O)NC1CCCC1 | 31.4 µg/mL (≈ 101 µM) |
| CC(C)(C)CNc1cc(N2CCOCC2)ccc1[N+](=O)[O-] | 1.8 µg/mL (≈ 6.14 µM) |
| CC(C)(C)c1nc2cc(Cl)c([N+](=O)[O-])cc2o1 | 6.5 µg/mL (≈ 25.5 µM) |
| COc1ccccc1/C=C/C(=O)NCC(=O)N/N=C/c1ccc(C)o1 | > 51.2 µg/mL |
| Cc1cccc(NC(=S)N2CCN(c3ccccn3)CC2)c1 | 6.7 µg/mL (≈ 21.4 µM) |
| Cc1c([N+](=O)[O-])c([N+](=O)[O-])nn1CC(=O)N1CCOCC1 | > 44.9 µg/mL |
| CC(OC(=O)C1=COCCO1)C(=O)NC1CCCCC1C (stereo unspecified) | > 44.6 µg/mL |
| CCOC(=O)c1ccccc1NC(=O)Cc1ccc(OC)c(S(=O)(=O)N2CCOCC2)c1 | 60.4 µg/mL (≈ 131 µM) |
| CN(C)c1cccc2cccc(N(C)C)c12 | 31.2 µg/mL (≈ 146 µM) |
| CCOC(=O)Cn1nc(C)n(-c2c(C)cccc2C)c1=O | > 43.4 µg/mL |
| Cc1ncc([N+](=O)[O-])n1S(=O)(=O)c1cc(Cl)ccc1Cl | 40.3 µg/mL (≈ 120 µM) |
| O=C(CSCc1ccc(Cl)cc1)Nc1ccc(O)cc1C(=O)O | > 52.8 µg/mL |
| O=C(c1cc2ccccc2cc1O)N1CCCC(C(F)(F)F)C1 (stereo unspecified) | > 48.5 µg/mL |
| CC(C)CC1NC(=O)N(CC(=O)Nc2cc([N+](=O)[O-])ccc2F)C1=O (stereo unspecified) | > 52.8 µg/mL |
| CCCCC(=O)Nc1cnc(NC(=O)c2cccs2)cc1C | > 47.6 µg/mL |
| CC(=O)c1ccc(N(CC(=O)Nc2cc(C)on2)S(=O)(=O)c2ccc(C)cc2)cc1 | 6.2 µg/mL (≈ 14.5 µM) |
| Cc1cccc(NC(=O)NCc2ccc3c(c2)OCO3)c1 | 1.6 µg/mL (≈ 5.63 µM) |
| CCOC(=O)c1cc(NCc2cccs2)ccc1N1CCOCC1 | 50.4 µg/mL (≈ 145 µM) |
| COc1cc(/C=C/c2onc(C)c2[N+](=O)[O-])cc(OC)c1OC | < 0.3 µg/mL |
| CC1CCCCN1CC(O)COCc1ccc(Cl)cc1 (stereo unspecified) | 29.1 µg/mL (≈ 97.7 µM) |
| O=C(COC(=O)c1ccc([N+](=O)[O-])o1)Nc1ccc2c(c1)OCO2 | 16.9 µg/mL (≈ 50.6 µM) |
| Cc1cc(C(=O)N(C)Cc2c(F)cccc2Cl)c2ccccc2n1 | 42.4 µg/mL (≈ 124 µM) |

The next lines start with the values.

| solubility kinetic | SMILES |
| --- | --- |
| < 0.4 µg/mL | CC(=O)Nc1ccc(NC(=O)Cc2ccc(-c3ccccc3)cc2)cc1 |
| 1.1 µg/mL (≈ 4.12 µM) | Cc1cnc(NC(=O)Cc2ccccc2Cl)s1 |
| > 48.8 µg/mL | OCCN1CCN(c2cc(C(F)(F)F)nc3ccccc23)CC1 |
| 51.4 µg/mL (≈ 141 µM) | COc1ccc(Cl)c(OC)c1C(=O)NC(=O)Nc1nc(C)nc(C)n1 |
| 25.6 µg/mL | C(#Cc1ccccc1)CN1CCCCC1.Cl |
| > 59.8 µg/mL | CC1(C2CC2)NC(=O)N(CC(=O)NCC(=O)Nc2ccc(F)c(F)c2F)C1=O (stereo unspecified) |
| > 42.5 µg/mL | Cc1ccc(OCC(=O)NC(C)c2ccccc2)cc1C (stereo unspecified) |
| 35.4 µg/mL (≈ 118 µM) | O=C(NCCc1ccc(Cl)cc1)C1(c2ccccc2)CC1 |
| 43.5 µg/mL (≈ 132 µM) | O=c1[nH]cnc2c1C(c1ccc(Cl)cc1)c1c(nc[nH]c1=O)O2 |
| > 44.7 µg/mL | CCOc1ccc(-c2c(=O)n(O)c3ccccc3[n+]2[O-])cc1 |
| > 61.3 µg/mL | COc1ccc(NC(=O)CC2CC3CCC2C3)cc1S(=O)(=O)N1CCOCC1 (stereo unspecified) |
| 36 µg/mL (≈ 125 µM) | CCOC(=O)COc1nc(C)cc(C(F)(F)F)c1C#N |
| 8.8 µg/mL (≈ 28.6 µM) | Cc1ccc(N2C(=O)CC(Cc3cc(C)cc(C)c3)C2=O)cc1 (stereo unspecified) |
| > 40.2 µg/mL | O=S(=O)(c1ccc2c(c1)CCN2)N1CCOCC1 |
| > 42.8 µg/mL | O=C(NCc1ccco1)c1ccc2[nH]c(=O)c(=O)[nH]c2c1 |
| 30.5 µg/mL (≈ 109 µM) | CC(Cc1ccccc1)NC(=O)c1cc2ccccc2o1 (stereo unspecified) |
| > 35.9 µg/mL | C=CCNC(=O)C(=O)NCC1CCCN1CC (stereo unspecified) |
| 24.1 µg/mL (≈ 72.9 µM) | CCCc1nc2c(sc3nc4c(cc32)COC(C)(C)C4)c(=O)o1 |
| 6.9 µg/mL (≈ 19.8 µM) | CC(=O)Nc1cccc(C(=O)OCC(=O)Nc2ccc(Cl)cn2)c1 |
| > 44.6 µg/mL | CC(Sc1nc(N)cc(N)n1)C(=O)NCC1CCCO1 (stereo unspecified) |
| 8.5 µg/mL (≈ 27.2 µM) | O=C(COC(=O)c1ccc2ccccc2n1)NC1CCCCC1 |

| solubility kinetic | SMILES |
| --- | --- |
| 34.8 µg/mL (≈ 115 µM) | O=C(CN1CCc2ccccc21)NC(=O)NC1CCCCC1 |
| 3.7 µg/mL (≈ 12.5 µM) | CCC(=O)NCCNc1nc2cc(C)cc(C)c2cc1C#N |
| > 46.9 µg/mL | COc1cccc(C(O)Cc2nc3ccccc3n2C)c1OC (stereo unspecified) |
| 0.4 µg/mL (≈ 1.51 µM) | Cc1ccc(Nc2nc3ccccc3c(=O)[nH]2)cc1C |
| 1.3 µg/mL (≈ 4.43 µM) | CSc1ncc(Cl)c(C(=O)Nc2ccccc2C)n1 |
| 4.7 µg/mL (≈ 20.5 µM) | N#Cc1cnc(Nc2ccc(F)cc2)nc1N |
| 1.4 µg/mL (≈ 3.86 µM) | Cc1oc(-c2ccc(Cl)cc2)cc1C(=O)/C(C#N)=C/Nc1ccccc1 |
| > 46 µg/mL | CCOc1ncccc1C(=O)OCC(=O)N1CCC(C)CC1 |
| 5.4 µg/mL (≈ 15.9 µM) | COC(=O)C1=C(C)N(C)C(=O)NC1c1c(OC)ccc2ccccc12 (stereo unspecified) |
| 24.3 µg/mL (≈ 89.6 µM) | COc1ccc(OC(=O)NCCc2ccccc2)cc1 |
| 1.2 µg/mL (≈ 4.04 µM) | O=C(Cc1cccc2ccccc12)Nc1c(F)cccc1F |
| > 43.6 µg/mL | CCn1c(CCc2ccccc2)nnc1SCC(N)=O |
| 4.3 µg/mL (≈ 19.5 µM) | CC(C)c1nc(Cl)c(C#N)c2c1CCC2 |
| 44.4 µg/mL (≈ 130 µM) | Cc1cc(C)cc(NC(=O)N2CCC(NC(=O)c3ccco3)CC2)c1 |
| > 42.4 µg/mL | CC(=O)Nc1ccccc1OCc1cnc(Cl)s1 |
| 34.4 µg/mL (≈ 129 µM) | Cc1ccc(NS(=O)(=O)c2ccc(F)cc2)nc1 |
| 1.4 µg/mL (≈ 4.92 µM) | Cc1ccc(C(=O)NC(=S)Nc2ccccc2C)cc1 |
| 2.9 µg/mL (≈ 9.74 µM) | CCOC(=O)c1csc(COc2ccccc2Cl)n1 |
| > 43 µg/mL | CN1CCN(NC(=S)NC(C)(C)CC(C)(C)C)CC1 |
| 11.5 µg/mL (≈ 33.9 µM) | COc1nccc(C(F)(F)F)c1C(=O)NC(=O)Nc1ccccc1 |
| > 45.6 µg/mL | CC(CN1CCCC1)OC(=O)c1ccccc1Cl.Cl (stereo unspecified) |
